ChEMBL document CHEMBL1201862, “PubChem BioAssay data set” (2004)
Calls of active or inactive are those of the source.

Experiments:
HEK293 = experiment: inhibitors of LMP1-driven NF-kB reporter, dose response, cell-based, HEK293, luciferase, cherry-pick (AID 588343); type: functional; details: Homo sapiens
[1] = target: SWI/SNF-related matrix-associated actin-dependent regulator of chromatin subfamily A member 2 (Homo sapiens, UniProt P51531); experiment: Luminescence-based cell-based high throughput dose response assay to identify activators of the function of SWI/SNF related, matrix associated, actin dependent regulator of chromatin, subfamily a, member 2 (SMARCA2, BRM).; type: functional
[2] = Counterscreen for activators of the function of SWI/SNF related, matrix associated, actin dependent regulator of chromatin, subfamily a, member 2 (SMARCA2, BRM): Luminescence-based cell-based high throughput dose response assay to identify non-selective compounds using the VP16 reporter assay.; type: functional
[3] = target: T1, Fructose-bisphosphate aldolase (Mycobacterium tuberculosis, UniProt P9WQA3); experiment: Fluorescence-based biochemical high throughput dose response assay for inhibitors of the fructose-bisphosphate aldolase (FBA) of M. tuberculosis.; type: functional
T1 sequence (P9WQA3 whole entry): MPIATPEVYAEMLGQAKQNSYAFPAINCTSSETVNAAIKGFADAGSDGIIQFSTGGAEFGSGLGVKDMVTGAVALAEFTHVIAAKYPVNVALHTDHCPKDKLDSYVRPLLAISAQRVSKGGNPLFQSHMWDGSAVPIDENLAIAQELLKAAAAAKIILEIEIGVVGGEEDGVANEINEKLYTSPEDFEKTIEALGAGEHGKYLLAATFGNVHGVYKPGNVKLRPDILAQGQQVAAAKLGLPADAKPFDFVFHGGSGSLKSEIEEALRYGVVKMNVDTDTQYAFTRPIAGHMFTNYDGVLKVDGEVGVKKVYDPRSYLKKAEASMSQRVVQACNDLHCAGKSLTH

[4] = inhibitors of intracellular T. cruzi replication, confirmation, NIH3T3 host cells, beta-gal luminescence (AID 2044); type: functional, cell-based;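 also: intracellular parasites grown in NIH/3T3 mouse fibroblasts as host cells; luminescent beta-galactosidase reporter signal from transgenic T. cruzi replicating inside host cells; inhibitors lower the luminescence signal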
[5] = cytotoxicity toward NIH3T3 fibroblasts, dose response, counter-screen, cell-based, ATP luminescence, mouse fibroblasts (AID 2010); type: functional;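 also: cells exposed to compound for about 90 hours before reading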
[6] = target: T2, Sentrin-specific protease 6 (Homo sapiens, UniProt Q9GZR1); type: functional;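 also: Luminescence-based dose-response confirmatory assay of SENP6 inhibition, following up an ultra-high-throughput screen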
T2 sequence (Q9GZR1 whole entry): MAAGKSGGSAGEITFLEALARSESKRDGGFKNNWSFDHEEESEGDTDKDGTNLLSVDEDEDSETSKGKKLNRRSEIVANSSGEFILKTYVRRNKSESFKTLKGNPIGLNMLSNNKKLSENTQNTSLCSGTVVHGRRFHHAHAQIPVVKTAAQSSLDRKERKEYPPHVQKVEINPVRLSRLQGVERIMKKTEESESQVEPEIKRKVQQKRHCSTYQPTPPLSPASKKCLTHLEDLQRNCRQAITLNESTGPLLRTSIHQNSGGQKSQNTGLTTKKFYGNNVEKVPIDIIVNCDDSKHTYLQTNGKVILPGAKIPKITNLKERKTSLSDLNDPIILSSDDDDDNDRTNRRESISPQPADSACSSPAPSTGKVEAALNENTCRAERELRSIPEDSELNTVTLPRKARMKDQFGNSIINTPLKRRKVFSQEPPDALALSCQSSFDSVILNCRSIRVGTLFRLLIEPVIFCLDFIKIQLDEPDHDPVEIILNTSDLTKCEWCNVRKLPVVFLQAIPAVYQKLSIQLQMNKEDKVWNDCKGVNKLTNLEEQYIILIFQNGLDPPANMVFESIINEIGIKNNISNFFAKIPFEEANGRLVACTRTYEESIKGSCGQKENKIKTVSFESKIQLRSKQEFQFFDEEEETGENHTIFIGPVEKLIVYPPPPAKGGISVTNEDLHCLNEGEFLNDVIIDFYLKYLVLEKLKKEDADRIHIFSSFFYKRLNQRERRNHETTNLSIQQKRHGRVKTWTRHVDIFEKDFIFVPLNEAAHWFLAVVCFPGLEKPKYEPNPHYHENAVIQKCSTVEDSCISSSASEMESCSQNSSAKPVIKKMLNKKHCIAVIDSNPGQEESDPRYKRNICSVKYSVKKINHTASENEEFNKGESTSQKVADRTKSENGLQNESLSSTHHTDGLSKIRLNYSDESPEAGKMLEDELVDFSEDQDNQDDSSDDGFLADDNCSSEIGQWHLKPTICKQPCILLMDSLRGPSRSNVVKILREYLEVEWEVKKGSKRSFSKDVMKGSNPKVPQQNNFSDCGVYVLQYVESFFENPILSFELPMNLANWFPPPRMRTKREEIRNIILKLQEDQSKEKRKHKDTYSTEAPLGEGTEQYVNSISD

[7] = target: T3, Sentrin-specific protease 8 (Homo sapiens, UniProt Q96LD8); type: functional;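 also: luminescence read-out of SENP8 inhibition, dose-response confirmation following an ultra-high-throughput screen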
T3 sequence (Q96LD8 whole entry): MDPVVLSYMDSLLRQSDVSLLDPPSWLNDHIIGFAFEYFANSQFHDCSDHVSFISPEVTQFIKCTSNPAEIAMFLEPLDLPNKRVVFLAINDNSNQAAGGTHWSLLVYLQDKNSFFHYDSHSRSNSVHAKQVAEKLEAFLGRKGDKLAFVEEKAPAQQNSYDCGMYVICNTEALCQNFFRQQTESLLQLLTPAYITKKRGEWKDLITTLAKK

[8] = target: T4, Sentrin-specific protease 7 (Homo sapiens, UniProt Q9BQF6); type: functional;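 also: Luminescence-based dose-response confirmation of ultra-high-throughput screening hits, measuring inhibition of SENP7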
T4 sequence (Q9BQF6 whole entry): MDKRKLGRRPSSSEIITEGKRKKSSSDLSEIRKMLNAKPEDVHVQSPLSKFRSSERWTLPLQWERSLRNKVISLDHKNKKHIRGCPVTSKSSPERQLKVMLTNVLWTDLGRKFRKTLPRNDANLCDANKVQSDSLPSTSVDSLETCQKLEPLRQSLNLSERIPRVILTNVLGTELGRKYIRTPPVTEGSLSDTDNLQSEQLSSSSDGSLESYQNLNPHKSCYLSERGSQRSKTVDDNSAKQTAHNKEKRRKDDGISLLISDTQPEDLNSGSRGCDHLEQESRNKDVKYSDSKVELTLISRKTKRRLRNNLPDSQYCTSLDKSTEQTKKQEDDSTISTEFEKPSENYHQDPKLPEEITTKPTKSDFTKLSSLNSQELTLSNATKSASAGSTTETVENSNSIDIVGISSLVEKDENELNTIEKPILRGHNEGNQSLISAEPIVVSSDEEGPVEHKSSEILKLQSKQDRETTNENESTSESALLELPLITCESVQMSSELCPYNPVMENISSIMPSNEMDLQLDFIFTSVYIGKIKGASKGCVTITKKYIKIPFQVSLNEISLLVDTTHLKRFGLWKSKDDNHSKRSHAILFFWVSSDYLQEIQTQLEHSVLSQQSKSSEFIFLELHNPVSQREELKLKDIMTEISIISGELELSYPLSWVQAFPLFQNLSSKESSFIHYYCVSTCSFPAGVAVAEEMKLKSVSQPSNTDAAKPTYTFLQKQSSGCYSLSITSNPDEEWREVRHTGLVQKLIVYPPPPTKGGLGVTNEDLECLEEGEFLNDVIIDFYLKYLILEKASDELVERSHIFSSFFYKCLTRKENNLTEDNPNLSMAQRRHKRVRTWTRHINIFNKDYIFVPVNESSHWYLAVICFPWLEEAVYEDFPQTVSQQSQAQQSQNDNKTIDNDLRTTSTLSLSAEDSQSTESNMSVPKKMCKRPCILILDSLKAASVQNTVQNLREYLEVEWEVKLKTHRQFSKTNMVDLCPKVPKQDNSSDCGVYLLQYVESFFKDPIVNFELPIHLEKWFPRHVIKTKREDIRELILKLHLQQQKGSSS

Caspase-3 = target: T5, Caspase-3 (Homo sapiens, UniProt P42574); type: functional;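 also: Dose-response selectivity test against caspase-3 for candidate inhibitors of sentrin-specific proteases (SENPs)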
T5 sequence (P42574 whole entry): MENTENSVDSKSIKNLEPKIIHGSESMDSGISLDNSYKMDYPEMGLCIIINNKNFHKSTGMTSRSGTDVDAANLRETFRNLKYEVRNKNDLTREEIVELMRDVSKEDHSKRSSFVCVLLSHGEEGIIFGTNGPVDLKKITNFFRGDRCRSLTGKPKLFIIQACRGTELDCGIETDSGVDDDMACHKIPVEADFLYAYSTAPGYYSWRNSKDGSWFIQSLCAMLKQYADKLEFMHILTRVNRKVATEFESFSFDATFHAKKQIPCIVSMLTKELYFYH

[9] = LGR2 antagonists, dose response, cell-based, HEK293, CRE-luciferase reporter, cherry pick, set 2 (AID 743343); type: functional;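 also: transfected cells were stimulated with diluted bursicon conditioned medium after compound addition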
[10] = MC4R antagonists, dose response, counter-screen for LGR2 antagonist project, cell-based, plate reader, cherry pick (AID 743444); type: functional;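 also: transfected HEK 293 cells stimulated with alpha-MSH peptide; potency of inhibitors of the alpha-MSH evoked signal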
[11] = A549 cell cytotoxicity, dose response, cytotoxicity control, plate reader, cherry-pick, antagonist series (AID 743412); type: functional, cell-based
Vero = experiment: cells; type: functional; details: Chlorocebus sabaeus
BJ [12] = experiment: cytotoxicity toward BJ-TERT fibroblasts, dose response, cell-based, RAS-independent, luminescence (AID 1933); type: functional; details: Homo sapiens
[13] = inhibitors of firefly luciferase expression or activity, dose response, H4 neuroglioma cells, luminescence (AID 1990); type: functional, cell-based
[14] = cytotoxicity toward DRD oncogenic fibroblasts, dose response, cell-based, non-viral oncogenic, luminescence (AID 1934); type: functional; details: Homo sapiens
BJ [15] = experiment: cytotoxicity toward BJ-TERT-LT-ST fibroblasts, dose response, cell-based, RAS-independent, luminescence (AID 1935); type: functional; details: Homo sapiens;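 also: BJ fibroblasts immortalized with TERT plus LT and ST oncogenes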
[16] = cytotoxicity in HEK-293T cells, dose response, cytotoxicity control for TCR NF-kB inhibitor project, luminescence, T-cell screen hits (AID 489026); type: functional, cell-based;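 also: cells exposed to compound about 14 hours before the viability readout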
BJ [17] = experiment: cells; type: functional, cell-based; details: Homo sapiens
[18] = Luminescence Cell-Based Dose Response HTS to Identify Inhibitors of 5'UTR Stem-Loop Driven Prion Protein mRNA Translation in H4 Neuroglioblastoma Cells. [Related pubchem assays: 1827 (Project Summary), 1813 (Primary HTS)]; type: functional
[19] = target: T6, Rac GTPase-activating protein 1 (Homo sapiens, UniProt Q9H0H5); experiment: MgcRacGAP GTPase-activating activity inhibitors, confirmation, biochemical, ADP Hunter fluorescence, primary and confirmatory (AID 624330); type: functional
T6 sequence (Q9H0H5 whole entry): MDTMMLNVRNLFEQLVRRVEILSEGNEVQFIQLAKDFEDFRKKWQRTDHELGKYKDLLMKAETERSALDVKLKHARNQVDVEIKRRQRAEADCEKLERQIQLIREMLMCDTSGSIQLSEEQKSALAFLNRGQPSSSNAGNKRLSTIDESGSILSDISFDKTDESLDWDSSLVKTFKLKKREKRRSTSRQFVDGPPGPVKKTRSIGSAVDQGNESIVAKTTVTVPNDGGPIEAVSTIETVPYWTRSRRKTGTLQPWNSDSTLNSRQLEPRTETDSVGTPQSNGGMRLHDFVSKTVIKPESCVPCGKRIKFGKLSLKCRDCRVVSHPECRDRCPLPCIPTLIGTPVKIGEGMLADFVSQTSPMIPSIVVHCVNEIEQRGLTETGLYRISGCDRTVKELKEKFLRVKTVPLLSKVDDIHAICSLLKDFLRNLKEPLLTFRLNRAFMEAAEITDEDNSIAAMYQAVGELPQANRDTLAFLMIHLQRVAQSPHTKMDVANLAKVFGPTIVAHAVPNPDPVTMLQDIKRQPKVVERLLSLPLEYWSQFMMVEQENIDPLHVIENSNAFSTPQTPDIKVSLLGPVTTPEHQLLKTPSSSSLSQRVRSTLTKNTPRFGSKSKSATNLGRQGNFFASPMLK

[20] = target: Glucose-6-phosphate 1-dehydrogenase (Homo sapiens, UniProt P11413); experiment: human G6PD enzyme inhibitors, dose response, selectivity assay for P. falciparum G6PD inhibitor project, biochemical, fluorescence (AID 504792); type: functional
[21] = HEp-2 cell cytotoxicity, dose response, cytotoxicity control for RSV inhibitor project, HTS (AID 2410); type: functional; details: human respiratory syncytial virus
[22] = microbe, parasite or virus in culture; type: functional; details: Mycobacterium tuberculosis

Chain of SWI/SNF-related matrix-associated actin-dependent regulator of chromatin subfamily A member 2 (P51531 whole entry): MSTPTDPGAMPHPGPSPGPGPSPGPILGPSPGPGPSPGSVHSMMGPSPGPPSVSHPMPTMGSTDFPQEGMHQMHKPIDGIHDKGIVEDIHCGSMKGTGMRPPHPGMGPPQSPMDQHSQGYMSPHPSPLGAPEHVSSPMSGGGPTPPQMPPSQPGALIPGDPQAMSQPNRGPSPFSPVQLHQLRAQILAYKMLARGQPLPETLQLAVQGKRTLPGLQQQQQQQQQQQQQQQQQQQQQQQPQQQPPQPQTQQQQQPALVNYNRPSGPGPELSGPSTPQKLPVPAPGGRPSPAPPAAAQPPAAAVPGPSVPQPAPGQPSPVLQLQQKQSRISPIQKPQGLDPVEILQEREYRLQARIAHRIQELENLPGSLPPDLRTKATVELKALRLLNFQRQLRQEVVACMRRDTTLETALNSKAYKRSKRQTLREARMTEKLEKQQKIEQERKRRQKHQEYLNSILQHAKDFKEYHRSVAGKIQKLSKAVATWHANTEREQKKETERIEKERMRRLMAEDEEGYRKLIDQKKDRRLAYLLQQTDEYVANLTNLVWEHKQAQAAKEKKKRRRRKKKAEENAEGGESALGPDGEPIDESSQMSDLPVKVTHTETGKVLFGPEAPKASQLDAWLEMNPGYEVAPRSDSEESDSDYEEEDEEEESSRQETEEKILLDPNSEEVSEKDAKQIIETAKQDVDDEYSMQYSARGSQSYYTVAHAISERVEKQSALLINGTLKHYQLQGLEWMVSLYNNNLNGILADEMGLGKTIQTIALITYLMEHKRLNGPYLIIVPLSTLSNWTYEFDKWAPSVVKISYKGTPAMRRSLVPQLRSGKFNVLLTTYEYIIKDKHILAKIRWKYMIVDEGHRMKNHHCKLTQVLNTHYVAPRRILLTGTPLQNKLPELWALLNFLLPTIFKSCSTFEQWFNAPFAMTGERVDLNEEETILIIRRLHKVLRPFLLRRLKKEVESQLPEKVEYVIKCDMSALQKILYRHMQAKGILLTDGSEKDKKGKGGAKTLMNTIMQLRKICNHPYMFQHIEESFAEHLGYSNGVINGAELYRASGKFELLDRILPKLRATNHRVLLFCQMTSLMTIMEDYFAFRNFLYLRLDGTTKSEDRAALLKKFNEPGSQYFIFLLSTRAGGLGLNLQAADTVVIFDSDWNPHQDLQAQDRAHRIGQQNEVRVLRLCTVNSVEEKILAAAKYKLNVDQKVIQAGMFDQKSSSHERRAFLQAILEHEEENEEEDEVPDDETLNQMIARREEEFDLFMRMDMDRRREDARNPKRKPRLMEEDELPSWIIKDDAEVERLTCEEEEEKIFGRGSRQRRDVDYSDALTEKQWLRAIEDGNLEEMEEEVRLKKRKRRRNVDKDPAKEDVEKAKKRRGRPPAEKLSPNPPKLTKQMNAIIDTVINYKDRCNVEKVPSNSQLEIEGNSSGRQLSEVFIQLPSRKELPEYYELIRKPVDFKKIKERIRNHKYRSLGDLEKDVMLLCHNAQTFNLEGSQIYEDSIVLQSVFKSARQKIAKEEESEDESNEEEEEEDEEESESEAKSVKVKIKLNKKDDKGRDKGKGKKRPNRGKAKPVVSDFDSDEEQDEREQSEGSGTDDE
Chain of Glucose-6-phosphate 1-dehydrogenase (P11413 whole entry): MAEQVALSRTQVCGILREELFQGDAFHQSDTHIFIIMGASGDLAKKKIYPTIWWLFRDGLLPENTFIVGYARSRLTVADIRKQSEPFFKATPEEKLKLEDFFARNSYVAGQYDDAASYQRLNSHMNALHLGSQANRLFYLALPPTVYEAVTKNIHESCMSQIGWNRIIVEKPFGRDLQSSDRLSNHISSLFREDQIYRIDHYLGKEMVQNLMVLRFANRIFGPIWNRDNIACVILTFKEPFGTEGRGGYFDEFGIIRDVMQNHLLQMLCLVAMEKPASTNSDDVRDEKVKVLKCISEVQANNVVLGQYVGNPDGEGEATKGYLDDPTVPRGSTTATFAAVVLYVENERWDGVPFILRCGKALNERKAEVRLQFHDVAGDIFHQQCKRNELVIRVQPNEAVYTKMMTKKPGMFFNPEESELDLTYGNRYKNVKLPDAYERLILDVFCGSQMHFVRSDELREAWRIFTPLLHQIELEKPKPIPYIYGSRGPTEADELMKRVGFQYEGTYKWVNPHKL

Structure (SMILES): C=CCn1c(C)c(C(C)=O)c(N2CCN(C(c3ccccc3)c3ccccc3)CC2)nc1=S
- AC50 (HEK293): 63.8 µM (active)

Structure (SMILES): COc1cc(OC)cc(-c2nc3ccccc3s2)c1
- EC50 [1]: > 91.1 µM (inactive)
- EC50 [2]: > 91.1 µM (inactive)

Structure (SMILES): COc1ccc2nc3c(O)n(Cc4ccncc4)cnc-3c2c1
- IC50 [3]: 0.97 µM (active)

Structure (SMILES): O=C(Oc1c(CN2CCOCC2)cc(Cl)c2cccnc12)c1ccccc1F
- EC50 [4]: 1.65 µM (active)
- EC50 [1]: > 91.2 µM (inactive)
- EC50 [5]: 8.05 µM (active)
- EC50 [2]: > 91.2 µM (inactive)

Structure (SMILES): COC(=O)/C=C/C(=O)Nc1cccc(C(F)(F)F)c1
- AC50 (HEK293): 11.1 µM (active)

Structure (SMILES): O=C(Nc1ccccc1)N1CC=C(c2ccc(F)cc2)CC1
- IC50 [6]: 54.5 µM (active)
- IC50 [7]: 86.8 µM (active)
- IC50 [8]: 14.9 µM (active)
- IC50 (Caspase-3): 34.3 µM (active)

Structure (SMILES): COc1ccc(NC(=O)c2ccc(-c3ccccc3Cl)o2)cc1
- IC50 [6]: 4.21 µM (active)
- IC50 [7]: > 100 µM (inactive)
- IC50 [8]: 4.54 µM (active)
- IC50 (Caspase-3): 16.2 µM (active)

Structure (SMILES): Cc1ccc(C(=O)Nc2ccc3c(c2)OCCO3)cc1
- AC50 (HEK293): 2.05 µM (active)
- AC50 [9]: 2.67 µM (active)
- AC50 [10]: 4.05 µM (active)
- AC50 [11]: > 52 µM (inactive)

Structure (SMILES): O=C(CNC(=O)c1ccco1)N=Nc1c(O)n(CCc2ccccc2)c2ccccc12
- CC50 (Vero): 2.46 µM (active)
- EC50 (BJ [12]): 3.21 µM (active)
- EC50 [13]: 12.2 µM (active)
- EC50 [14]: 2.05 µM (active)
- EC50 (BJ [15]): 1.45 µM (active)
- IC50 [16]: > 80 µM (inactive)
- EC50 (BJ [17]): 17.7 µM (active)
- EC50 [18]: > 120 µM (not active)

Structure (SMILES): COc1cc(N)c2ncccc2c1OC
- IC50 [19]: 56.3 µM (active)
- IC50 [20]: > 80 µM (inactive)

Structure (SMILES): O=C1C(=O)N(c2ccccc2)C(c2ccccc2)C1c1ccccc1 (stereo unspecified)
- IC50 [3]: > 9.99 µM (inactive)

Structure (SMILES): O=C1NC(=O)/C(=C/c2ccc(-c3cccc([N+](=O)[O-])c3)o2)S1
- IC50 [6]: 17 µM (active)
- IC50 [7]: 55.7 µM (active)
- CC50 [21]: 1.93 µM (active)
- IC50 [8]: 50.7 µM (active)
- CC50 [22]: > 40 µM (active)
- IC50 (Caspase-3): 13.6 µM (active)

Structure (SMILES): CC/N=c1\sc(C(=O)OC)cc(=O)n1CC
- EC50 [1]: > 91.2 µM (inactive)
- EC50 [2]: > 91.2 µM (inactive)

Structure (SMILES): COc1cc(C(=O)N/N=C/c2cccc(Oc3ccccc3)c2)ccc1O
- CC50 (Vero): > 25 µM (active)
